In patent publication US20110021355A1, “FORMULATION WITH REDUCED HYGROSCOPICITY” (BAYER TECHNOLOGY SERVICES GMBH, priority 2008, published 2011):

Assay: Final pH of the formulation after dissolution in 0.01-molar hydrochloric acid / release
Type: physicochemical
Conditions: 0.1 g solid in 100 g of 0.01-molar hydrochloric acid, 400 rpm (FIG. 2)
Protocol: For verification of the final pH after dissolution, 100 g of 0.01-molar hydrochloric acid was put in a beaker and stirred with an inclined-vane stirrer at 400 rpm. Then 0.1 g of the solid to be verified (formulation from example 1, and magnesium hydroxide) was added and the increase in pH was recorded (pH-meter: Knick®Calimatic 766).

**Q.** Which “time after which the final pH is established” value does the source give for `[Mg+2].[OH-].[OH-]` [pure magnesium hydroxide, magnesium hydroxide] here?
**A.** The value was “about 1800 s”.
